Test results from ChEMBL document CHEMBL1201862, “PubChem BioAssay data set” (2004).
The source made the active and inactive calls.

Assays:
[1] = reduction of Shn3 3'UTR-driven luciferase in osteoblasts – cell-based, Clone20 osteoblasts, firefly luciferase, cherry-picked, dose response (AID 624132); format: functional;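 further: firefly luciferase luminescence from reporter carrying the Shn3 3'UTR in osteoblasts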
[2] = loss of viability in HepG2 cells – cell-based, CellTiter-Glo, cherry-picked, cytotoxicity control for Shn3 inhibitor project, dose response (AID 624134); format: functional
[3] = non-specific 3'UTR reporter inhibition in Clone20-Shn3RL – cell-based, Renilla luciferase, cherry-picked, counter-screen for Shn3 inhibitor project, dose response (AID 624133); format: functional
[4] = Luminescence Cell-Based Dose Confirmation HTS to Identify Inhibitors of Platelet Dense Granule Release. [Related pubchem assays: 1663 (Primary HTS), 1678 (Summary of Project)]; format: functional
[5] = biological target: Luciferin 4-monooxygenase (Photinus pyralis, UniProt P08659); experiment: inhibition of purified Photinus pyralis luciferase – biochemical, luminescence, dose response (AID 1891)
[6] = biological target: T1, RNA-binding protein pos-1 (Caenorhabditis elegans, UniProt G5EF15); experiment: disruptors of C. elegans POS-1 RNA interaction – biochemical, fluorescence polarization, dose response (AID 1964);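 further: purified POS-1 fused to maltose binding protein made in E. coli; potency of compounds blocking POS-1 binding to fluorescent RNA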
T1 sequence (G5EF15 whole entry): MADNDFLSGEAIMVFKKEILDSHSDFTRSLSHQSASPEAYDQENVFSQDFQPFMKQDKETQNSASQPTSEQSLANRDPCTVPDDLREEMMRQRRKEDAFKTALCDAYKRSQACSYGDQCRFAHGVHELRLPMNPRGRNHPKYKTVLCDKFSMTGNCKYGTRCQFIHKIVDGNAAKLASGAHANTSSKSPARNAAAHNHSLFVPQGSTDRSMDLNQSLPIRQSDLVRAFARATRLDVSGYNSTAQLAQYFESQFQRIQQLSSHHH

[7] = viability of PTEN-deleted HCT116 cells – cell-based, HCT116 PTEN knockout, dose response (AID 1047); format: functional;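 further: HCT116 colon tumor cells with PTEN knocked out; cells exposed to compound for 60 hours before readout; potency for loss of cell viability measured by luminescence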
[8] = viability of HCT116 lacking mutant beta-catenin – cell-based, human colon tumor, dose response (AID 1045); format: functional;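 further: HCT116 colon tumor cells with beta catenin knocked out; cells exposed to compound for 60 hours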
cells [9] = format: functional, cell-based
cells [10] = format: functional, cell-based; remark: listed apart in the source
Protein skinhead-1 = biological target: T2, Protein skinhead-1 (Caenorhabditis elegans, UniProt P34707); format: functional
T2 sequence (P34707 whole entry): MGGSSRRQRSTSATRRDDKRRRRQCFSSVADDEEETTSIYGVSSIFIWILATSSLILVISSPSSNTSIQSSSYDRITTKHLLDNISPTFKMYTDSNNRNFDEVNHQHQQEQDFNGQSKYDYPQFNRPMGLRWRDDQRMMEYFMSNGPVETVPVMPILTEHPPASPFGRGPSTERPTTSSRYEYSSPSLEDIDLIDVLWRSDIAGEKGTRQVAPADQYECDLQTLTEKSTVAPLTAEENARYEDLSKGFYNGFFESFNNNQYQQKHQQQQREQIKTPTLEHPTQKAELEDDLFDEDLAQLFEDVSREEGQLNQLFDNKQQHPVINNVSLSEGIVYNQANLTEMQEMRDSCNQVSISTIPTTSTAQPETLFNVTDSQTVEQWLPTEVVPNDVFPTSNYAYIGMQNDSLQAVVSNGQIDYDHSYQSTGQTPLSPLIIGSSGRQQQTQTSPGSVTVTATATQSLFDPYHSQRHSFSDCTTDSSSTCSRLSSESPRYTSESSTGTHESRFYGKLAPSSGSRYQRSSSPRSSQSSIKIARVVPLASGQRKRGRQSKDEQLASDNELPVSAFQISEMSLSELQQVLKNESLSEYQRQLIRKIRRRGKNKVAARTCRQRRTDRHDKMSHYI

Cytochrome P450 2C9 = Cytochrome P450 2C9 (Homo sapiens, UniProt P11712)
[11] = biological target: T3, Calpain-2 catalytic subunit (Sus scrofa, UniProt P43367); experiment: m-calpain protease blockers, concentration series – biochemical, fluorogenic peptide substrate, dose response (AID 1420); format: functional
T3 sequence (P43367 whole entry): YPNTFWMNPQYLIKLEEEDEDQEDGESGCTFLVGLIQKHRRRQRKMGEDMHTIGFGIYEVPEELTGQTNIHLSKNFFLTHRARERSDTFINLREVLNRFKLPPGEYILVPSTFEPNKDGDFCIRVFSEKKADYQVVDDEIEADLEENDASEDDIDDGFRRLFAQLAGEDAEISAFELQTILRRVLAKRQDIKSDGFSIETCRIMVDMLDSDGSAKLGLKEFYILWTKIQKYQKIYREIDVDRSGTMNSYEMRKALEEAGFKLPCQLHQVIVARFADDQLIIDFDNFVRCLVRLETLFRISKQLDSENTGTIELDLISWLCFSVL

Cytochrome P450 1A2 = biological target: T4, Cytochrome P450 1A2 (Homo sapiens, UniProt P05177);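 further: PubChem cytochrome P450 panel assay, CYP1A2 panel member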
T4 sequence (P05177 whole entry): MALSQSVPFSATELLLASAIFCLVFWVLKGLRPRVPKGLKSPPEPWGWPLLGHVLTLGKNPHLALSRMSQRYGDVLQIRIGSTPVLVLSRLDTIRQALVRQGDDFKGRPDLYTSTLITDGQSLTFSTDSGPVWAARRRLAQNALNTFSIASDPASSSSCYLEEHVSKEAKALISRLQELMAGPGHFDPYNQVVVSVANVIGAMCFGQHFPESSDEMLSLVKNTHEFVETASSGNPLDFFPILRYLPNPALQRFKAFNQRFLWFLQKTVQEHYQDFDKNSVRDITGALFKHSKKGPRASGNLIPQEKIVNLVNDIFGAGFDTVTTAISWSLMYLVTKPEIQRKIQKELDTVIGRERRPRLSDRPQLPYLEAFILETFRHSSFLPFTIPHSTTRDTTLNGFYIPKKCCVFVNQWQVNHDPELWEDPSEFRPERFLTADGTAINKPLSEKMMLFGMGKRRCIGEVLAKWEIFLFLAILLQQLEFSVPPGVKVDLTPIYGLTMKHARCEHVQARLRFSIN

[12] = blockers of HIV-1 envelope-mediated cell-cell fusion – cherry-pick, dose response (AID 652057); format: functional, cell-based
[13] = HIV-1 AD8 envelope cell-cell fusion blockers – cherry-pick, dose response (AID 652062); format: functional, cell-based;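 further: luciferase signal from cell-cell fusion driven by HIV-1 clade B AD8 Env; potency is for inhibitors of fusion seen as a drop in luminescence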
[14] = Trypanosoma cruzi growth suppression in host cells – NIH3T3 host cells, beta-gal luminescence, confirmation (AID 2044); format: functional, cell-based;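 further: intracellular parasites grown in NIH/3T3 mouse fibroblasts as host cells; luminescent beta-galactosidase reporter signal from transgenic T. cruzi replicating inside host cells; inhibitors lower the luminescence signal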
[15] = NIH3T3 cell viability loss – ATP luminescence, mouse fibroblasts, counter-screen, dose response (AID 2010); format: functional, cell-based;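 further: cells exposed to compound for about 90 hours before reading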
[16] = biological target: T5, Heat shock factor protein 1 (Mus musculus, UniProt P38532); experiment: decrease of HSF1-responsive luciferase luminescence – cell-based, NIH3T3, dose retest, confirmation (AID 2382); format: functional;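 further: NIH3T3 fibroblasts with HSF1-driven luciferase reporter stressed by proteasome inhibitor MG132; luminescence from HSF1-driven luciferase expression after 8 hours of MG132 stress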
T5 sequence (P38532 whole entry): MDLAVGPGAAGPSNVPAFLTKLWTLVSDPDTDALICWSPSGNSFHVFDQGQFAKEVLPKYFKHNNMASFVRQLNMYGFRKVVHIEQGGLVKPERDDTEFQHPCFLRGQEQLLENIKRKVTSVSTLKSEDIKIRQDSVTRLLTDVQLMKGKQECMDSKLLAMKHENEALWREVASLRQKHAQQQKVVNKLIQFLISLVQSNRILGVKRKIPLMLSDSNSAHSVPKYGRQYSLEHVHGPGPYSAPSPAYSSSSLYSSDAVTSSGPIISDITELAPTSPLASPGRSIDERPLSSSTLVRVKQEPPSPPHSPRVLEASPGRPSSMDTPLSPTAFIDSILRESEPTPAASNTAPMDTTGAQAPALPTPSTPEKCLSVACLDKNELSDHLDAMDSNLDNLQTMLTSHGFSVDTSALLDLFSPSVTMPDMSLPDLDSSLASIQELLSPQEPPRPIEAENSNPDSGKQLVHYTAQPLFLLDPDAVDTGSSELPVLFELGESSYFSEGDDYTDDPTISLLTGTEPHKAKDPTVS

Cytochrome P450 3A4 = Cytochrome P450 3A4 (Homo sapiens, UniProt P08684);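 further: CYP3A4 tested as one member of a cytochrome P450 panel screen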
Cytochrome P450 2C19 = Cytochrome P450 2C19 (Homo sapiens, UniProt P33261); experiment: Cytochrome panel assay with activity outcomes. Panel member name: p450-cyp2c19 Compounds with AC50 equal or less than 10 uM are considered active; format: functional; details: read-out: AC50
Cytochrome P450 2C19, sequence (P33261 whole entry): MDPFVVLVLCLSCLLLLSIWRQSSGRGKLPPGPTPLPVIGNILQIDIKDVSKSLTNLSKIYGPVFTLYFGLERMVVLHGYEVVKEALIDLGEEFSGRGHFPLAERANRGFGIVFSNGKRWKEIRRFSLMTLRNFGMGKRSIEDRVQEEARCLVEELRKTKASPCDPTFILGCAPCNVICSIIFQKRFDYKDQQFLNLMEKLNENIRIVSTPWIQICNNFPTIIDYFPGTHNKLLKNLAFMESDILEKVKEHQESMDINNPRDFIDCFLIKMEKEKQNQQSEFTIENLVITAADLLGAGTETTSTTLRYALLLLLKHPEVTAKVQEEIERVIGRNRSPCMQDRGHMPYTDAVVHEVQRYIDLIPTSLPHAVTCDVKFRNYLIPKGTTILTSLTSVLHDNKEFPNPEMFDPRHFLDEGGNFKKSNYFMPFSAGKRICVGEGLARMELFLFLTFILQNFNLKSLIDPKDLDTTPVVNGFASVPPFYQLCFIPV

Cytochrome P450 2C9, sequence (P11712 whole entry): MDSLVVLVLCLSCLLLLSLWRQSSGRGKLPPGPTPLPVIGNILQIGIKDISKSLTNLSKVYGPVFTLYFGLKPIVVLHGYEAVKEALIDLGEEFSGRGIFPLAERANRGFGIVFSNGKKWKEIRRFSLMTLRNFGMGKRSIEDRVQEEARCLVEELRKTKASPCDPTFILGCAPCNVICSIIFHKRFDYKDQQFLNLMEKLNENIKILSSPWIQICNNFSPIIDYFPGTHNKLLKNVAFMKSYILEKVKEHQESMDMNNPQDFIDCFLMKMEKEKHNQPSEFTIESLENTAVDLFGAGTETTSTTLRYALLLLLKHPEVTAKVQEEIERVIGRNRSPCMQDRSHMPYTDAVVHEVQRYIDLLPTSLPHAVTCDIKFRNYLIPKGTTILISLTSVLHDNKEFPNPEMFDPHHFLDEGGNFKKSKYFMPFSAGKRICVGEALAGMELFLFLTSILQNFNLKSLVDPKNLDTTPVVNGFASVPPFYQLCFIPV
Luciferin 4-monooxygenase, sequence (P08659 whole entry, the tested form may be a part): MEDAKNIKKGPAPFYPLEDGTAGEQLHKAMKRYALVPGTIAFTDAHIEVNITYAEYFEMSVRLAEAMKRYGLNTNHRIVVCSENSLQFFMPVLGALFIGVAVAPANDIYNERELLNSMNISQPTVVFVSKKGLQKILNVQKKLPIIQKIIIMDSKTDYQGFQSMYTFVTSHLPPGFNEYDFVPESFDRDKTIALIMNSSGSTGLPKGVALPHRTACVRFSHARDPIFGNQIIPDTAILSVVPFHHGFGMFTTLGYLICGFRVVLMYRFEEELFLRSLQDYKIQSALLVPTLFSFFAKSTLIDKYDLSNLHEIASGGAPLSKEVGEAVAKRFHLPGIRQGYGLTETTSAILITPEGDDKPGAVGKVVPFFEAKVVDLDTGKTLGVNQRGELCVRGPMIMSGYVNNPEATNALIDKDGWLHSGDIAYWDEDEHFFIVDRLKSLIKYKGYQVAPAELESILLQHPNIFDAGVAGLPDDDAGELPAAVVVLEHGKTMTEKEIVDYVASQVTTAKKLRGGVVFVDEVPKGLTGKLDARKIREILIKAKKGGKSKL
Cytochrome P450 3A4, sequence (P08684 whole entry): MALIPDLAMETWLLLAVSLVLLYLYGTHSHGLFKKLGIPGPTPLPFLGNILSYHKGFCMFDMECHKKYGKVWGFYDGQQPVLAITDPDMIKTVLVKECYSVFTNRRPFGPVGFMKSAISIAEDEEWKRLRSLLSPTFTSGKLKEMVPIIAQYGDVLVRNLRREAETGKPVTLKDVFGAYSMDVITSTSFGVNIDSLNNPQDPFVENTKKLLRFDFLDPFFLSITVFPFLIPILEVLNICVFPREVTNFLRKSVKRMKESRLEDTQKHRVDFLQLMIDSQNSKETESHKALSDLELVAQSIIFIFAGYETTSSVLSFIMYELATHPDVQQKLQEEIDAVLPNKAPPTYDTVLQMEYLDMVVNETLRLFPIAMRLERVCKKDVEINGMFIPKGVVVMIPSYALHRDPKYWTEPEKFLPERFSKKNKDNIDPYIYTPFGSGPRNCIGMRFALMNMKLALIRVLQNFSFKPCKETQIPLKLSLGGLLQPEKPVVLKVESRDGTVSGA

CC(=O)Nc1cccc(NC(=O)CSc2ncc(-c3ccc(Cl)cc3)n2Cc2ccco2)c1
AC50 [1]: 4.95 µM (active) | AC50 [2]: 60.2 µM (active) | AC50 [3]: 10.7 µM (active)

CCCCOc1cccc(-c2cc(C(=O)NN=C(S)NCC)c3ccccc3n2)c1
EC50 [4]: 111 µM (active)

CCCCOc1cccc(-c2cc(C(=O)NNC(=S)NCC)c3ccccc3n2)c1
EC50 [5]: 2.3 µM (active)

O=C(O)COc1ccc(/C=C/c2n[nH]c(-c3ccccc3O)n2)cc1
EC50 [6]: > 300 µM (not active)

COc1ccc(CC(=O)Nc2cccc(-c3nnc(-c4ccccc4)o3)c2)cc1OC
EC50 [7]: 25.4 µM (active) | EC50 [8]: 69.6 µM (active) | EC50 (cells [9]): > 350 µM (not active) | EC50 (cells [10]): > 350 µM (not active)

CCC(=O)N1CCN(c2nc3ccc(Br)cc3s2)CC1
IC50 (Protein skinhead-1): 58.6 µM (inactive) | EC50 (cells [9]): 144 µM (active) | EC50 (cells [10]): > 350 µM (not active)

O=C(NCc1cccc(Cl)c1)c1cc(COc2ccc3ncccc3c2)on1
AC50 [1]: 3.05 µM (active) | AC50 [2]: 38.7 µM (active) | AC50 [3]: 14.8 µM (active)

CCn1ccnc1C(O)c1ccccc1OC (stereo not given)
EC50 (cells [9]): > 350 µM (not active) | EC50 (cells [10]): > 350 µM (not active)

Cc1ccc(C(=O)CCC(=O)Nc2cccc(C(F)(F)F)c2)cc1
EC50 [5]: > 112 µM (not active) | EC50 [4]: > 112 µM (not active)

Cc1ccc(CNC(=O)CCNS(=O)(=O)c2ccc3c(c2)c(=O)n(C)c(=O)n3C)cc1
AC50 (Cytochrome P450 2C9): inconclusive

O=C(COc1cccc2cccnc12)NNC(=O)Nc1ccccc1
IC50 [11]: < 0.4 µM (not active)

COC(=O)CN(c1ccccn1)S(=O)(=O)c1ccccc1
AC50 (Cytochrome P450 1A2): 25.1 µM (inconclusive) | AC50 (Cytochrome P450 2C9): inconclusive

Cc1ccc2c(c1)C(CCN)C(=O)N2Cc1ccccc1 (stereo not given)
EC50 [5]: > 112 µM (not active) | EC50 [4]: > 112 µM (not active)

Cc1cc2ncn(S(=O)(=O)N3CCCCC3)c2cc1C
AC50 [12]: 5.54 µM (active) | AC50 [13]: 60.6 µM (active)

c1c2c(cc3sc(N4CCOCC4)nc13)OCCO2
EC50 [5]: 11.4 µM (active) | EC50 [4]: 3.56 µM (active)

O=S(=O)(Cc1ccccc1)NCC1CCCN(Cc2ccc(F)c(F)c2)C1 (stereo not given)
EC50 [14]: 0.199 µM (active) | IC50 [11]: 17.6 µM (not active) | EC50 [15]: > 60 µM (not active)

CNc1nc(C)cc(C)c1S(=O)(=O)c1ccc(C)cc1
AC50 (Cytochrome P450 2C9): inconclusive

COC(=O)CN1C(=O)[C@H]2[C@@H](c3ccc(C)o3)N3C(=O)CN(CC4CC4)C(=O)[C@@]3(Cc3ccccc3)[C@H]2C1=O
EC50 (cells [9]): > 350 µM (not active) | EC50 (cells [10]): > 350 µM (not active)

COc1cccc(CN(C)CC(=O)Nc2cccc(C(F)(F)F)c2)c1OC
IC50 [11]: 3.87 µM (not active) | EC50 [16]: > 195 µM (not active)

C=CCOC(=O)C(C#N)c1nc2ccccc2nc1N1CCN(Cc2ccc3c(c2)OCO3)CC1 (stereo not given)
EC50 [14]: 1.18 µM (active) | EC50 [5]: 69.2 µM (active) | EC50 [15]: > 60 µM (not active) | EC50 [4]: > 112 µM (not active)

Cc1cccc(Cn2c(NCCO)nc3c2c(=O)n(C)c(=O)n3C)c1
AC50 [1]: 0.528 µM (active) | AC50 [2]: 2.83 µM (active) | AC50 [3]: 2.12 µM (active)

COc1ccc(C(=O)CSc2nc(C(C)(C)C)nc3ccccc23)cc1
IC50 [11]: 12.6 µM (not active)

O=C(NNC(=O)C1CCN(S(=O)(=O)c2ccc(Cl)cc2)CC1)c1ccc(Cl)cc1
AC50 (Cytochrome P450 3A4): 3.55 µM (inconclusive) | AC50 (Cytochrome P450 2C9): inconclusive

O=S(=O)(c1ccccc1)N1CCCCC1c1cccnc1 (stereo not given)
AC50 (Cytochrome P450 2C9): inconclusive

CCCN(CCC)CCCNS(=O)(=O)c1cc(Br)cc2c1N(C(C)=O)CC2
AC50 (Cytochrome P450 2C19): 31.6 µM (inconclusive) | AC50 (Cytochrome P450 2C9): inconclusive

C[C@H](CO)N1C[C@H](C)[C@H](CN(C)S(=O)(=O)c2ccccc2)Oc2ccc(NC(=O)Cc3ccccc3)cc2CC1=O
AC50 [12]: < 0.26 µM (active) | AC50 [13]: < 0.26 µM (active)

Cc1[nH]c2ccccc2c1/C=N/NC(=S)NCc1ccccc1
IC50 [11]: 15.1 µM (not active)

O=C(O/N=C\c1ccc(N2CCCCC2)c([N+](=O)[O-])c1)c1c(F)cccc1F
AC50 (Cytochrome P450 3A4): 12.6 µM (inconclusive) | AC50 (Cytochrome P450 2C19): 11.2 µM (inconclusive) | AC50 (Cytochrome P450 2C9): inconclusive

COc1cc(N/N=C/c2ccc(N(C)C)cc2)ncn1
EC50 [5]: 2.9 µM (active) | EC50 [4]: 0.989 µM (active)

CC(=O)Nc1ccc(S(=O)(=O)c2ccc(N)cc2)cc1 [MONO-N-ACETYL DAPSONE]
AC50 (Cytochrome P450 2C9): inconclusive
